Measurements taken from ChEMBL document CHEMBL5604063, “ASAP - DENV-2 NS2B-NS3 protease fluorescence dose response” (2024).
Where “and” joins values, the source holds several entries; their conditions need not be identical. Equal entries are not always repeated.

Experiments:
Genome polyprotein [1] = biological target: T1, Genome polyprotein (dengue virus type 2, UniProt P29990); format: functional, Thailand/16681/1984
Genome polyprotein [2] = biological target: T1, Genome polyprotein; format: functional, Thailand/16681/1984; remark: listed apart in the source

T1 sequence (P29990 1346-1475 limits assumed): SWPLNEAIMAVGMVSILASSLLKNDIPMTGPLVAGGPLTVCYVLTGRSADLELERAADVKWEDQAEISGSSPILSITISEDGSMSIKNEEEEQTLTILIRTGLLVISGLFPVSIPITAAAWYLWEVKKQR
T1 sequence (P29990 1476-2093 limits assumed): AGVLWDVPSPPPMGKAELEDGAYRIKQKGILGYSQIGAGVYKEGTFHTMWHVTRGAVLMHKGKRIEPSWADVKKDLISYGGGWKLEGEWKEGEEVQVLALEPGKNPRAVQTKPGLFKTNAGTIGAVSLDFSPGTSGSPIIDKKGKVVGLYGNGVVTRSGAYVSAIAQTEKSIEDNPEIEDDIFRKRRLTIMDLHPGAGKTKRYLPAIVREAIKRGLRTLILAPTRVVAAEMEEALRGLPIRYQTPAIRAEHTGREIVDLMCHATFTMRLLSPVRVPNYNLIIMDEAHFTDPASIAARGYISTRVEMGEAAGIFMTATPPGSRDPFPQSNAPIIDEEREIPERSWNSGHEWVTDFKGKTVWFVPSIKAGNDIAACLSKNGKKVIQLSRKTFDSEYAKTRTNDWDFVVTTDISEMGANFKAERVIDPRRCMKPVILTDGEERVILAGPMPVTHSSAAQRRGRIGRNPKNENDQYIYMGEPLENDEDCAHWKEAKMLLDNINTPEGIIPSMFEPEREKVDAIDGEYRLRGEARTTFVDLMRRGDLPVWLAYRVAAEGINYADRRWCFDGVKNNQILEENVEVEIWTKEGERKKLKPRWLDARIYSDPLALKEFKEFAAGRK

Row | Structure (SMILES) | IC50 (Genome polyprotein [1]) [µM] | IC50 (Genome polyprotein [2])
1 | CC(C)c1cc(-c2ccc3[nH]c(C(=O)O)cc3c2)cc(S(N)(=O)=O)c1 | > 99.5 | > 100 µM
2 | O=C1CCc2c(cc(Cl)cc2-c2ccc3[nH]c(C(=O)O)cc3c2)N1 | > 99.5 | > 100 µM
3 | O=C(O)c1cc2cc(-c3cc(Cl)cc4c3CCNC4=O)ccc2[nH]1 | > 99.5 | > 100 µM
4 | Cc1[nH]c2ccc(Cl)cc2c1Cc1ccc(-c2nnn[nH]2)cc1 | 42.6 | 21 µM
5 | Cn1ncc2c(C(=O)Nc3ccc4c(c3)CNC4)cc(Br)cc21 | > 99.5 | > 100 µM
6 | CNC(=O)[C@H](Nc1cc(CNC(=O)OC(C)(C)C)cc(C(=O)O)c1)c1cc(Cl)cc(C2CC2)c1 | > 99.5 | > 100 µM
7 | O=C(O)[C@H]1C[C@H](n2ccc(Cc3c[nH]c4ccc(Cl)cc34)n2)C1 | > 99.5 | > 100 µM
8 | O=C(Nc1cccc([C@@H]2C[C@H]2C(=O)O)c1)c1cc(Cl)cc2[nH]ncc12 | > 99.5 | > 100 µM
9 | C=CC[C@H](Nc1cccc(C2(C(=O)O)CCC2)c1)c1cc(Cl)cc(NC(=O)OCc2ccccc2)c1 | 16.7 | 17.2 µM
10 | c1ccc2c(Cc3ccc(-c4nnn[nH]4)cc3)c[nH]c2c1 | > 99.5 | > 100 µM
11 | N#Cc1cc(-c2ccc3[nH]c(C(=O)O)cc3c2)cc(N2CCCC2)c1 | 63.4 | > 100 µM
12 | CNc1c(-c2cc(Cl)cc(C3CC3)c2)nc2cccc(C(=O)O)n12 | > 99.5 | > 100 µM
13 | O=C(O)c1ccc(Cc2c[nH]c3ccc(Cl)cc23)cc1 | > 99.5 | > 100 µM
14 | N#C[C@]1(Nc2cccc(-c3nn[nH]n3)c2)C(=O)Nc2ccc(Cl)cc21 | > 99.5 | > 100 µM
15 | C=CC[C@H](Nc1cncc(Cl)c1)c1cccc(-c2nn[nH]n2)c1 | > 99.5 | > 100 µM
16 | C=CC[C@H](Nc1cccc(Cl)c1)c1cccc(-c2nn[nH]n2)c1 | > 99.5 | 41.5 µM and 38.9 µM
17 | O=C(O)CCCn1cnc(-c2cc(Cl)cc(NC(=O)OCc3ccccc3)c2)n1 | > 99.5 | > 100 µM
18 | N#C[C@H](Nc1cncc(-c2nn[nH]n2)c1)c1cc(Cl)cc(NC(=O)OCc2ccccc2)c1 | 18.7 | 11 µM and 10.8 µM
19 | N#C[C@H](c1cc(Cl)cc(C2CC2)c1)N1c2cnccc2C[C@H]1C(=O)O | > 99.5 | > 100 µM

Row | Structure (SMILES) | IC50 (Genome polyprotein [1]) [µM] | IC50 (Genome polyprotein [2])
20 | NCc1cc(CCc2cc(Cl)cc(NC(=O)OCc3ccccc3)c2)cc(C(=O)O)c1 | > 99.5 | > 100 µM
21 | N#C[C@H](Nc1cccc(-c2nn[nH]n2)c1)c1cc(Cl)cc2[nH]ncc12 | > 99.5 | 88.3 µM
22 | Clc1cc([C@@H]2C[C@H]2c2cccc(-c3nn[nH]n3)c2)c2cn[nH]c2c1 | 66.2 | 20.4 µM and 23.8 µM
23 | O=C(Nc1cc(Cl)cc([C@H]2[C@H](CO)[C@@H]2c2cccc(-c3nn[nH]n3)c2)c1)OCc1ccccc1 | 25.2 | 11.3 µM and 13.5 µM
24 | N#C[C@H](Nc1ccc2c(c1)CNC2)c1cc(Cl)cc2[nH]ncc12 | > 99.5 | > 100 µM
25 | NCc1cc(Cl)cc(-c2ccc3[nH]c(C(=O)O)cc3c2)c1 | > 99.5 | > 100 µM
26 | O=C(Nc1cc(Cl)cc([C@H]2C[C@@H]2c2cccc(-c3nnn[nH]3)c2)c1)OCc1ccccc1 | 16.2 | 19.1 µM
27 | N#C[C@H](Nc1ccc(CCC(=O)O)cn1)c1cc(Cl)cc(C2CC2)c1 | > 99.5 | > 100 µM
28 | N#C[C@H](Nc1cccn(CC(=O)O)c1=O)c1cc(Cl)cc(C2CC2)c1 | > 99.5 | > 100 µM
29 | CNc1ncc(C(F)(F)F)cc1-c1ccc2[nH]c(C(=O)O)cc2c1 | > 99.5 | > 100 µM
30 | O=C(Nc1cc(Cl)cc([C@H](Nc2cccc(-c3nn[nH]n3)c2)C(=O)NC2CCOCC2)c1)OCc1ccccc1 | 40.6 | 13.2 µM and 19.9 µM
31 | O=C(O)c1cccc(CCc2cc(Cl)cc3[nH]ncc23)c1 | > 99.5 | > 100 µM
32 | O=C(Nc1cc(Cl)cc(-c2cn(C3CCCC3)nc2C(=O)O)c1)OCc1ccccc1 | 34.3 | 42.7 µM and 31.7 µM
33 | NCc1cc(NC(=O)c2cc(Cl)cc(NC(=O)OCc3ccccc3)c2)cc([C@@H]2C[C@H]2C(=O)O)c1 | > 99.5 | > 100 µM
34 | CNC(=O)[C@H](Nc1cc(CN)cc(C(=O)O)c1)c1cc(Cl)cc(C2CC2)c1 | > 99.5 | > 100 µM
35 | N#Cc1cc(CN)cc([C@H]2C[C@@H]2c2cc(Cl)cc(NC(=O)OCc3ccccc3)c2)c1 | > 99.5 | > 100 µM
36 | NCc1cc(CC(=O)O)cc(NC(=O)c2cc(Cl)cc(NC(=O)OCc3ccccc3)c2)c1 | > 99.5 | > 100 µM
37 | C[C@@]1(c2cccc(CN)c2)C[C@H]1c1cc(Cl)cc(NC(=O)OCc2ccccc2)c1 | 17.5 | > 100 µM
38 | COc1cc(-c2cc(Cl)cc(NC(=O)OCc3ccccc3)c2)c(OC)cc1CC(=O)O | 32.8 | 18.4 µM and 18.3 µM

Row | Structure (SMILES) | IC50 (Genome polyprotein [1]) [µM] | IC50 (Genome polyprotein [2])
39 | Cc1c(C(=O)Nc2cccc(-c3nnn[nH]3)c2)cnn1-c1ccc(Cl)cc1 | > 99.5 | > 100 µM
40 | OCC#C[C@H](Nc1ccc2c(c1)CNC2)c1cc(Cl)cc2[nH]ncc12 | 25.1 | 92.7 µM and 63.7 µM
41 | CNC(=O)[C@H](Nc1cc(Cl)cc(C2CC2)c1)c1ccc(-c2nn[nH]n2)cc1 | > 99.5 | 99.6 µM and > 100 µM
42 | NCc1cccc([C@H](C#CCO)Nc2cc(Cl)cc(NC(=O)OCc3ccccc3)c2)c1 | 64.9 | > 100 µM
43 | CNC(=O)[C@H](Nc1cccc(C2(C(=O)O)CCC2)c1)c1cc(Cl)cc(C2CC2)c1 | > 99.5 | > 100 µM
44 | CNC(=O)c1cc(CN)cc([C@@H]2C[C@H]2c2cc(Cl)cc(NC(=O)OCc3ccccc3)c2)c1 | 29.6 | > 100 µM
45 | N#Cc1cc(Cl)cc(-c2ccc3[nH]c(C(=O)O)cc3c2)c1 | > 99.5 | > 100 µM and 82.1 µM
46 | C[C@@]1(c2cc(Cl)cc(NC(=O)OCc3ccccc3)c2)C[C@H]1c1cccc(CN)c1 | 88.1 | > 100 µM
47 | O=C(O)c1cc2cc(-c3cc(Cl)cc(C4CC4)c3)ccc2[nH]1 | 15.7 | 11.4 µM and 11 µM
48 | CNC(=O)[C@H](Nc1cncc(C(=O)O)c1)c1cc(Cl)cc(C2CC2)c1 | > 99.5 | > 100 µM
49 | C[C@](O)(Cc1cc(Cl)cc(NC(=O)OCc2ccccc2)c1)c1cccc(CN)c1 | > 99.5 | > 100 µM
50 | CN(C)CCNC(=O)[C@H](Nc1cccc(-c2nn[nH]n2)c1)c1cc(Cl)cc(NC(=O)OCc2ccccc2)c1 | 97.3 | 47.2 µM and 67.4 µM and > 100 µM
51 | CCc1cc(Br)cc2c(Cc3ccc(-c4nnn[nH]4)cc3)c[nH]c12 | 12 | 8.03 µM and 9.26 µM
52 | CNC(=O)[C@H](Nc1cc(CN)cc(C(=O)O)c1)c1cc(Cl)cc(NC(=O)OCc2ccccc2)c1 | > 99.5 | > 100 µM
53 | CC(C)[C@H](CC(=O)O)NC(=O)c1cc(Cl)cc(NC(=O)OCc2ccccc2)c1 | > 99.5 | > 100 µM
54 | N#C[C@H](Nc1ccc(CC(=O)O)cn1)c1cc(Cl)cc(C2CC2)c1 | > 99.5 | > 100 µM
55 | CNC(=O)[C@H](Nc1cc(CN)cc(-c2nn[nH]n2)c1)c1cc(Cl)cc(C2CC2)c1 | > 99.5 | > 100 µM
56 | O=C(Nc1cc(Cl)cc(C(=O)Nc2ccnc(C(=O)O)c2)c1)OCc1ccccc1 | 66.9 | > 100 µM
57 | O=C(Nc1cc(Cl)cc(C(=O)N2CC[C@H](C(=O)O)C2)c1)OCc1ccccc1 | > 99.5 | > 100 µM
